# Experimental data as given in patent US6130250A, “Veterinary use of a pleuromutilin derivative” (priority 1996, dated 2000).
# Where “and” joins values, the source holds several entries; their conditions need not be identical. Identical values can stand only once. Counter-ions that a name gives are not always drawn. Like-named read-outs stand apart in the source and are kept apart here.
# Columns and labels:
# Lawsonia intracellularis = Lawsonia intracellularis infection of IEC-18 rat enterocyte cell cultures; assay type: cell-based; conditions: for Percentage ratio of Lawsonia intracellularis infection: listed as Valnemulin (ch); for percent of cells infected with Lawsonia intracellularis at 2 µg/mL: IEC-18, 2 μg/ml; for percent of cells infected with Lawsonia intracellularis at 2 µg/mL / percent of cells infected with Lawsonia intracellularis at 8 µg/mL: first strain column, read-out: Percentage ratio of Lawsonia intracellularis infection; for percent of cells infected with Lawsonia intracellularis at 8 µg/mL: IEC-18, 8 μg/ml
# Method: The method of Lawson, G. H. K. et al., J. Clin. Microbiol. 31 (1993) 1136-1142 is generally followed, with some modifications (standard Kirby-Bauer disc methods are not applicable to intracellular bacteria):
# Cells: Monolayers of IEC-18 rat enterocyte cell cultures (ATCC CRL 1589) are established and maintained by standard cell culture methods. One day old monolayers of dividing cells (approx. 30% confluence) are prepared for infection on day 0, on glass coverslips in small culture vials (Tracs).
# Inocula: Batches of three strains of Lawsonia intracellularis are used as inocula. These are derived from pigs afflicted with proliferative enteropathy, of the proliferative haemorrhagic enteropathy (PHE) and porcine intestinal adenomatosis (PIA) forms prepared from pig intestines, and passaged in cell cultures as described in the above Lawson reference. The two PHE strains were partly tested for pathogenicity in pigs as described in McOrist, S. et al., Infect. Immun. 61 (1993) 4286-4292. Inocula batches are collected after several cell passages, and stored frozen at -70° C. in 1 ml vials. Preliminary trials established appropriate dilutions of thawed vials that would result in readily recognizeable cell infections in 5 day trials.
# Antibiotics are prepared as 100× stock solutions for each use. Activity of each batch of antibiotic is confirmed by standard Kirby-Bauer disc methods with a laboratory strain of Escherichia coli.
# Infections: On day 0, a vial of each strain is thawed, diluted 1/8 to 1/32 with culture medium, for use in four groups 1 to 4.
# For group 4 (continuous treatment) this inoculum is initially incubated for one hour at 37° C. in culture medium containing the antibiotic at various concentrations prior to addition to cells.
# For group 3 (extracellular activity) this inoculum is prepared in culture medium, containing the antibiotic at various concentrations added immediately prior to time of addition to cells.
# For groups 1 (control) and 2 (intracellular activity) inocula are prepared in culture medium free of antibiotics and added to cells. Culture vials (Tracs) with cells with added inocula (+/- antibiotics) in a total of 0.5 ml of medium are placed in steel jars, evacuated to 40% atmosphere (8% O2), left for 2 min, replenished with hydrogen and finally 10% CO2. Tracs are then removed from these jars and placed into an incubator set to provide a humidified atmosphere of 8% O2, 8.8% CO2 and the remainder nitrogen, at 37° C.
# On days 1 and 2 all vials are removed and refed with fresh medium, either containing antibiotics, groups 2 and 4, or not, groups 1 and 3, and replaced into the incubator. On day 5, all coverslips are removed and stained for Lawsonia intracellularis by indirect immunoperoxidase stain incorporating a specific monoclonal antibody. The number of cells on each coverslip, heavily infected with Lawsonia intracellularis (>30 per cell, heavily infected cell=HIC) is used as the main measure of infection. The number of foci of HIC and general cell observations are also noted. HIC in control (group 1), intracellularly active antibiotic assay (group 2), extracelluiarly active antibiotic assay (group 3) and continuous treatment assay (group 4) are compared in triplicate assays, for up to 3 strains each. Some assay are repeated for various inocula strengths. Percentage ratios are calculated after derivation of the mean HIC of the controls relevant to the test group. Mean control HIC is the total number of HIC in control Tracs divided by the number of infected control Tracs. The percentage ratio of test Tracs is then calculated by dividing their HIC value by the mean control HIC, multiplied by 100 to give a percentage.
# M. hyopneumoniae = test: MIC against M. hyopneumoniae strains isolated from challenge material; assay type: cell-based, Mycoplasma hyopneumoniae; conditions: Mesomycoplasma hyopneumoniae
# [1] = Lawsonia intracellularis, group 2 (intracellular activity)
# [2] = Lawsonia intracellularis, group 3 (extracellular activity)
compound,measurement,setting,value
"C=C[C@]1(C)C[C@@H](OC(=O)CSC(C)(C)CNC(=O)[C@H](N)C(C)C)[C@]2(C)[C@H](C)CC[C@]3(CCC(=O)[C@H]32)[C@@H](C)[C@@H]1O [valnemulin hydrochloride, 14-O-[1-[(R)-2-amino-3-methylbutyrylamino]-2-methylpropan-2-ylthioacetyl]mutilin]",Percentage ratio of Lawsonia intracellularis infection,"Lawsonia intracellularis; 4 μg/ml, group 2 (intracellular activity)",1.7%
same,Percentage ratio of Lawsonia intracellularis infection,"Lawsonia intracellularis; 4 μg/ml, group 3 (extracellular activity)",0.83% and 1.7%
same,Percentage ratio of Lawsonia intracellularis infection,"Lawsonia intracellularis; 4 μg/ml, group 4 (continuous treatment)",0.8% and 2.5%
same,Percentage ratio of Lawsonia intracellularis infection,"Lawsonia intracellularis; 8 μg/ml, group 2 (intracellular activity)",0.86%
same,Percentage ratio of Lawsonia intracellularis infection,"Lawsonia intracellularis; 8 μg/ml, group 3 (extracellular activity)",0.2% and 1.4%
same,Percentage ratio of Lawsonia intracellularis infection,"Lawsonia intracellularis; 8 μg/ml, group 4 (continuous treatment)",0.5% and 1.4% and 0.2%
same,percent of cells infected with Lawsonia intracellularis at 2 µg/mL,Lawsonia intracellularis; [1],0%
same,percent of cells infected with Lawsonia intracellularis at 2 µg/mL,Lawsonia intracellularis; [2],0%
same,percent of cells infected with Lawsonia intracellularis at 8 µg/mL,Lawsonia intracellularis; [1],0%
same,percent of cells infected with Lawsonia intracellularis at 8 µg/mL,Lawsonia intracellularis; [2],0%
same,percent of cells infected with Lawsonia intracellularis at 8 µg/mL,"Lawsonia intracellularis; Lawsonia intracellularis, group 4 (continuous treatment)",0%
same,MIC,"Lawsonia intracellularis; Lawsonia intracellularis, read-out: minimum concentration to cause significant inhibition of growth (<1% growth)",< 2 µg/mL
same,MIC,M. hyopneumoniae; strain from material used in Trial 3,0.0078 µg/mL
same,MIC,M. hyopneumoniae; strain in material used in Trials 1 & 2,0.016 µg/mL
